Experimental findings from paper PMC12446003, “Pharmacological characterization of linaprazan glurate (X842), a novel potassium-competitive acid blocker, in vitro and in vivo” (Frontiers in Pharmacology, 2025) are described below.

One test concerns the target T1, Gastric H+/K+-ATPase (Oryctolagus cuniculus, UniProt P27112).
T1 construct: Gastric H^+/K^+-ATPase was prepared from rabbit glands; from tissue; host or cells: rabbit gastric glands
Description: Inhibition of H+/K+-ATPase activity (Malachite Green Pi assay). The class given is biochemical, rabbit. As to the method:
The H^+/K^+-ATPase inhibition reaction was performed in buffer (50 mM Tris-HCl, 5 mM magnesium chloride, 10 μM valinomycin, pH 6.5) with or without 20 mM potassium chloride (KCl), and inorganic phosphate (Pi) was detected using Malachite Green solution, made from 0.1% malachite green, 1.5% hexaammonium molybdate, and 0.2% Tween-20 in a ratio of 100:25:2 ([Skou, 1982]; [Feng et al., 2011]). Gastric H^+/K^+-ATPase was prepared from rabbit glands, as described previously ([Kondo et al., 2012]; [Arikawa et al., 2012]). The reaction occurred in a 96-well plate with a total volume of 50 µL/well, including buffer, enzyme, ATP, and drug. After 30 min at 37 °C for enzyme stability, ATP was added at 0.2 mM to start the reaction, which was optimized from the titration experiments. The reaction lasted 20 min at 37 °C, followed by the addition of Malachite Green for the colorimetric assay. The enzyme control wells contained the full enzyme system, while the buffer control wells contained only buffer to correct for background values. Absorbance was measured at 620 nm using a plate reader (SpectraMax M5). The inhibition rate was calculated using the following formula, accounting for the enzyme activity in the presence and absence of K^+: Inhibition Rate %=ODwith K+and enzyme,without drug−ODwith K+and enzyme,with drug /ODwith K+and enzyme,without drug−ODwithout K+and enzyme,without drug×100 where “OD with K^+ and enzyme, without drug” is the optical density measured at 620 nm in the presence of K^+ and enzyme, without the tested drug (enzyme control wells); “OD with K^+ and enzyme, with drug” is the optical density measured at 620 nm in the presence of K^+ and enzyme, with the tested drug; and “OD without K^+ and enzyme, without drug” is the optical density measured at 620 nm in the absence of K^+ and enzyme, without the tested drug (buffer control wells).

Test [1] deals with gastric acid secretion in pylorus-ligated rats. As to the kind of experiment: Gastric acid inhibition in pylorus-ligated rats. The class given is in vivo. Conditions: oral 2 mg/kg, pylorus-ligated rats, relative to vehicle. As for the experimental part: The rats were fasted overnight with ad libitum access to water. Drugs and vehicle were administered orally to rats in a blinded manner. The pylorus was ligated under ether anesthesia within 1 h after drug and vehicle administration, and the abdomen was closed by suturing. At 4 h after pyloric ligation, the rats were sacrificed by CO2 asphyxiation, and the stomach was removed ([Hori et al., 2010]). The gastric contents were collected and centrifuged at 3,000 rpm for 10 min. The volume of each sample was measured, the gastric acid concentration was determined by acid-base titration, and the total acidity was calculated.

The structures appear in SMILES notation. “And” between values parts separate entries of the source, which are not always exact repeats. Identical values can stand only once. Like-named read-outs stand apart in the source and are kept apart here.

T1 sequence (P27112 whole entry): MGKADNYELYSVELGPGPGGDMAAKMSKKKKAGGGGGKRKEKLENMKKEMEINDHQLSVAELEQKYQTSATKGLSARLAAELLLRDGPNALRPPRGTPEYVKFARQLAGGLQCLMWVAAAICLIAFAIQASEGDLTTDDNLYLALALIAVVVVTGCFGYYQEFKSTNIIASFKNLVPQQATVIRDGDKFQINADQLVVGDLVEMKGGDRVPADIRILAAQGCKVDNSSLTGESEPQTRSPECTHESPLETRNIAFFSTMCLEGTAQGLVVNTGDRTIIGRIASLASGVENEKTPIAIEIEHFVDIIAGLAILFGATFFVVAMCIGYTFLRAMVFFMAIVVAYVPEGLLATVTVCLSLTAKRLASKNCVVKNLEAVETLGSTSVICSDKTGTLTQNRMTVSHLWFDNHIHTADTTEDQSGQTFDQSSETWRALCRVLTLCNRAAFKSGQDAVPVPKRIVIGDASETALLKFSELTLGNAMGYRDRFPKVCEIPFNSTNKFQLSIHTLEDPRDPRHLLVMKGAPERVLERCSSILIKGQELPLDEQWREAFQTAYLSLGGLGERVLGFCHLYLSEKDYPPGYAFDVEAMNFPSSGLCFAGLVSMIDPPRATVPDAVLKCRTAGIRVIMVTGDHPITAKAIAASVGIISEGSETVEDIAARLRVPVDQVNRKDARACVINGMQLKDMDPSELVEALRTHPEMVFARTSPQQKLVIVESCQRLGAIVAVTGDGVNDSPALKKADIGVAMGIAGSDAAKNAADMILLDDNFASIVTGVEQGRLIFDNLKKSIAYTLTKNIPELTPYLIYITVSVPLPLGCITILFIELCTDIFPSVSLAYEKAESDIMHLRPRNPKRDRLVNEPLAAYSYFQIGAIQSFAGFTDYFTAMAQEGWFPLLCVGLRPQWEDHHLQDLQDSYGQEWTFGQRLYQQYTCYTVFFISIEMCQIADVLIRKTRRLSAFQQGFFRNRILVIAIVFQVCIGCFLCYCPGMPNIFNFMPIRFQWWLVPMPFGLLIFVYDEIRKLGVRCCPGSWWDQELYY
T1 sequence (P18597 whole entry partner): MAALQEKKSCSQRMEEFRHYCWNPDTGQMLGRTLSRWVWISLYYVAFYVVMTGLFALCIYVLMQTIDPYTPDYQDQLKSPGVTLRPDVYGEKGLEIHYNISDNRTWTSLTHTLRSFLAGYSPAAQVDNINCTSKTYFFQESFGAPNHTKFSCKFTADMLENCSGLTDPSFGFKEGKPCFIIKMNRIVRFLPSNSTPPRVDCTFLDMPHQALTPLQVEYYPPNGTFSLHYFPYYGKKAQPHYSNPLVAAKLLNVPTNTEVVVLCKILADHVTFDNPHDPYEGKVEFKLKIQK

As for `CNCc1cc(-c2ccccc2F)n(S(=O)(=O)c2cccnc2)c1` [vonoprazan, 1-[5-(2-fluorophenyl)-1-(pyridin-3-ylsulfonyl)-1H-pyrrol-3-yl]-N-methylmethanamine], the “Inhibitory effect on H+/K+-ATPase in the absence of K+” value on Gastric H+/K+-ATPase (absence of K+) is “No measurable inhibitory effect”. The IC50 was 0.017 µM and 0.0171 µM on Gastric H+/K+-ATPase (in the presence of K+ (20 mM KCl), pH 6.5, read-out: IC50, H+/K+-ATPase inhibition); 0.0171 µM at Gastric H+/K+-ATPase (in the presence of potassium ions, rabbit gastric glands, read-out: IC50 (Figure 7A)). Moreover, the “Total acidity inhibitory rate (%)” value in test [1] turned out to be 47%.
